Experimental data as given in patent US12012391B1, “9-(2-hydroxyquinoline-3-yl)-10-[3-(dimethylamino)propyl]-3,4,6,7,9,10-hexahydroacridine-1,8(2H,5H)-dione as an antimicrobial compound” (KING FAISAL UNIVERSITY, priority 2023, dated 2024).

What was measured:
Details in all cases: after 10, 20, 40 and 60 minutes at all dilutions 1:100 to 1:800
[1] = system: Candida albicans; assay: Antimicrobial activity by agar dilution, Candida albicans; format: cell-based
Experimental: (§1) The antimicrobial properties of the synthesized compound 9-(2-hydroxyquinoline-3-yl)-10-[3-(dimethylamino)propyl]-3,4,6,7,9,10-hexahydroacridine-1,8(2H,5H)-dione were studied by the method of agar dilution. Test solutions of each compound were prepared in a concentration of 1% using dimethylformamide as a solvent. Then they were diluted in a physiological solution to obtain the final experimental dilutions 1:100, 1:200, 1:400, and 1:800. The effect of these substances were compared with furacillin in a controllable study. The testing microbes used were gram positive bacteria St. aereus, gram negative bacteria E. Coli and Ps. aeruginosa, and Candida albicans fungi. The experiments used for this survey were meat-pentonlu agar (EPA) for cultivation of bacteria and Saburo environment for fungi. Each experiment used 1 ml of test solution on each plate 500 min. Add 2 drops of emulsified with microbes feel. All experimental samples were taken from the agar after 10, 20, 40, 60 minutes in the environment on the basis of Patrk planted. Bacteria were cultivated at a temperature of 37° C. for 1 day and the mushroom was kept in a thermostat for […] at a temperature of 28° C. Then the results were checked.

[2] = system: Ps. aeruginosa; assay: Antimicrobial activity by agar dilution, Ps. aeruginosa; format: cell-based, Pseudomonas aeruginosa
Experimental: as §1

[3] = system: St. aereus; assay: Antimicrobial activity by agar dilution, St. aereus; format: cell-based, Staphylococcus aureus
Experimental: as §1

[4] = system: E. Coli; assay: Antimicrobial activity by agar dilution, E. Coli; format: cell-based, Escherichia coli
Experimental: as §1

Measured: inhibition activity

CN(C)CCCN1C2=C(C(=O)CCC2)C(c2cc3ccccc3nc2O)C2=C1CCCC2=O [9-(2-hydroxyquinoline-3-yl)-10-[3-(dimethylamino)propyl]-3,4,6,7,9,10-hexahydroacridine-1,8(2H,5H)-dione]
highest inhibition activity: all assays above
